The results in this text go back to patent publication US7711497B2, “Method of identifying calcium-binding sites in gamma-crystallin useful for management of cataract” (Council of Scientific and Industrial Research, priority 2002, dated 2010).

Where no end group is shown, it is not given here.

Data set [1] can be described thus: Solubility of Greek key peptides. The class given is physicochemical. Conditions: aqueous medium / water.
Data set [2] is described as follows: 45Ca overlay method (peptide dot-blot). The conditions noted are these: dot-blot on polyvinylidene difluoride membrane. The format is binding. The protocol:
Calcium Binding Studies by ^45Ca Overlay Method-Calcium binding to peptides was done by ^45Ca overlay method of Maruyama et al, 133). […] of peptides were spotted onto a polyvinylidene difluoride membrane by dot-blot apparatus. The membrane was equilibrated in a solution containing 10-mM imidazole HCl. pH 6.8, 60 mM KCl, 5 mM MgCl2 and then incubated for 15 min at 25° C. in the same buffer containing 1 microCi/mil ^45Ca. The membrane was then rinsed twice in 45% ethanol, blotted dry, and exposed to PhosphorImager screen, and the signal was read in Phosphorimager (Fuji Bas-1800).
The wild type peptide g3, its variants (g3a and g3b) and s3a were spotted onto a polyvinylidene difluoride membrane and detected by ^45Ca overlay. For a positive control, EF-hand peptide corresponding to site 4 of rat neuronal calcium sensor-1 was used; bovine serum albumin (BSA) was used as a negative control.

Data set [3] is described as follows: Stains-all binding assay (induced CD). The conditions noted are these: peptides; dye 43 μM. The method, then:
Stains-all Binding Assay-Aliquots of protein solutions were added to the Stains-all solution and mixed gently. Circular dichroism induced in the achiral dye upon binding to the protein was measured in the visible region of the spectrum (400-700 nm). The dye solution and the crystallins were prepared in 2 mM MOPS buffer, pH 7.2, containing 30% ethylene glycol (34, 35). Ellipticities were expressed in millidegrees.
CD spectra of Stains-all induced upon binding to crystallin were recorded in 2 mM MOPS buffer, pH 7.2, containing 30% ethylene glycol, path length 1 cm. Dye concentration in all experiments was 16 μM. The ellipticity data are represented in millidegrees. A, CD spectra recorded with increasing concentration of -crystallin; 1, 0.026 mg/ml (---); 2, 0.078 mg/ml (- - -); 3, 0.13 mg/ml -.-.-. and 4, 0.156 mg/ml (. . .). B, effect of calcium on Stains-all--crystallin complex spectra. Calcium was added in the dye-protein mixture (-crystallin concentration was […]), and CD was recorded. Calcium concentrations used are as follows: 1, no calcium (---); 2, 50 μM calcium (- - - -); 3, 100 μM calcium (. . .); 4, 200 μM calcium (-.-.-.); and 5, 300 μM calcium (-..-..). The J band was abolished with 300-μM calcium.
CD spectra of Stains-all induced upon binding to peptides were recorded. Dye concentration in all experiments was 43 μM. The ellipticity data are represented in millidegrees. a, CD spectra were recorded with increasing concentration of the wild type peptide g3; 0.013 mg/ml (---), 0.037 mg/ml (- - -), and 0.057 mg/ml (. . . .). b, effect of calcium on Stains-all-peptide complex. Calcium was added to the dye-peptide mixture (peptide concentration was 57 μg/ml) and calcium concentrations used were: no calcium (---), 0.7 mM calcium (- - - -), and 7.5 mM calcium (. . . .). c and d represent the Stains-all binding of the modified peptides, g3a and g3b. Identical concentrations of dye and peptides were used.

Data set [4] in a line: Calcium binding of single crystallin domain of AIMI. Conditions: compared with gamma-crystallin.

As for “RMRIYERDDFRGQMSEITDDCPSLQDRFHLTEVHSLNVLEGS [g3]”, the solubility result in data set [1] is “fairly soluble in aqueous medium”.
Regarding “g3a: g3 mutant with Glu-95 and Glu-121 modified to Lys, Seq. ID No. 2 (RMRIYKRDDFRGQMSEITDDCPSLQDRFHLTKVHSLNVLEGS)”, the 45Ca binding result in data set [2] is recorded as “do not show detectable binding”. Also, the “Stains-all binding, induced CD band” value in data set [3] was “decreased several fold”.
For the molecule “g3b: g3 mutant with aspartates 108 and 109 replaced by Lys, Seq. ID No. 3 (RMRIYERDDFRGQMSEITKKCPSLQDRFHLTEVHSLNVLEGS)”, the 45Ca binding result in data set [2] was “do not show detectable binding”. Further, the “Stains-all binding, induced CD band” value in data set [3] was “binds the dye and induces the band”.
Take “s3a: control peptide, first Greek key motif of spherulin 3a (residues 14-56), Seq. ID No. 4 (GEVFLYKHVNFQGDSWKVTGNVYDFRSVSGLNDVVSSVKVGPN)”: in data set [3], the “Stains-all binding, induced CD band” value was “binds the dye and induces a calcium-sensitive band at 470-475 nm”. For the same molecule, in data set [1], the solubility result is “not soluble in water”.

B1: AIMI: single crystallin domain of AIMI (absent in melanoma), 1022-1117 residues, comprising two Greek keys (protein, UniProt Q9Y4K1 1022-1117, looked up, fragment)
chain: AAKSGPQVIPPASEKTLPIQAQSQGSRTPLMAESSPTNSPSSGNHLATPQRPDQTVTNGQDSPASLLNISAGSDDSVFDSSSDMEKFTEIIKQMDS
modifications: crystallin domain
notes: single crystallin domain of AIMI (absent in melanoma), 1022-1117 residues, comprising two Greek keys
As to B1, the calcium binding affinity result in data set [4] is listed as “binds calcium with a comparative affinity to gamma-crystallin”.
